Assay results as given in PMC10485906, “Development of a Dihydroquinoline–Pyrazoline GluN2C/2D-Selective Negative Allosteric Modulator of the N-Methyl-D-aspartate Receptor” (ACS Chemical Neuroscience, 2023).
Values joined by “and” are separate entries in the source; they are usually repeats but may differ in a detail not shown here. Identical values can stand only once. Like-named read-outs stand apart in the source and are kept apart here. Each block holds one compound with its values, some of them ahead of it.

Assay: Mouse plasma and brain pharmacokinetics, IP administration
Format: in vivo
Conditions: for concentration at 0.25 h / concentration at 0.5 h / concentration at 1 h / concentration at 2 h / concentration at 4 h: intraperitoneal; for AUC: read-out: AUC0.25–4 h brain; for AUC(0-t): read-out: AUC0.25–4 h plasma (AUCLAST)
Experimental: IACUC-approved protocols and animal welfare regulations outlined in the “Guide for the Care and Use of Laboratory Animals” were both followed during the pharmacokinetic evaluation of all compounds. In vivo analysis was performed by Pharmaron (IP administration, Irvine, CA) and Sai Life (IV administration, Hinjewadi Pune, Pune, India).
A group (n = 15) of fed, male C57BL/6 mice ∼6 to 8 weeks of age was injected IP with 10 mg/kg (1 mg/mL) of drug using 50% PEG400 in water as a vehicle. Samples were collected from the blood and brain at 0.25, 0.5, 1, 2, and 4 h after administration (3 mice per time point) following CO2 anesthesia. Collection from the brain was performed as follows: the mouse is terminally anaesthetized via rising concentration of CO2 and as much blood is removed as possible via cardiac puncture. The cardiac puncture is done by opening the chest cavity to expose the heart, cutting an incision in the right auricle using surgical scissors, and finally injecting a saline solution (∼10 mL) slowly into the left ventricle via a syringe. The mouse is placed head down at a 45° angle to facilitate blood removal. After perfusion, the skull is opened and the brain is removed. The whole brain is washed with saline, dried with surgical gauze, placed in tared tubes, and stored at −75 °C before analysis. For plasma sample preparation at the 0.25–2 h time points, 15 μL of blank solution, 30 μL of plasma sample, and 150 μL were added sequentially for protein precipitation. After centrifugation, 20 μL of the supernatant and 80 μL of collection buffer were combined, and thus, the final compound concentration in plasma (ng/mL) was corrected by multiplying by 5. For plasma sample preparation at the 4 h time point, 15 μL of blank solution, 30 μL of plasma sample, and 150 μL of acetonitrile were added sequentially for protein precipitation. For all brain sample preparation, 15 μL of blank solution, 30 μL of brain samples, and 150 μL of acetonitrile were added sequentially for protein precipitation. Brain samples were prepared by adding brain (g) to deionized water (mL) in a 1:4 ratio for homogenization. The mixtures were then vortexed for 30 s and subsequently centrifuged (∼4000 rpm) for 15 min. The supernatant was diluted 3-fold with water, and a 2 μL aliquot of the diluted supernatant was injected into a Shimadzu LC-30A LC-MS/MS system with a Phenomenex 2.6 μ PFP 100A column (30 mm × 2.1 mm) using verapamil as an internal standard. A gradient from 95% water (0.1% formic acid) to 95% ACN (0.1% formic acid) was run over 2 min at a flow rate of 0.6 mL/min. Brain and blood samples were collected at 15, 30, 60, 120, and 240 min from three C57Bl/6 mice at each time point. See Tables S6–S10 for 2i concentrations.

[1] = male, C57BL/6, mouse, brain, 10 mg/kg IP
[2] = male, C57BL/6, mouse, brain, 10 mg/kg IP, read-out: Tmax brain
[3] = male, C57BL/6, mouse, plasma, 10 mg/kg IP
[4] = male, C57BL/6, mouse, plasma, 10 mg/kg IP, read-out: Tmax plasma
[5] = male, C57BL/6, mouse, plasma, 10 mg/kg IP, read-out: t1/2 plasma (converted)
[6] = male, mouse, plasma, 10 mg/kg IP, C57BL/6 mice

AUC % Extrapolation brain (10 mg/kg IP): 58% | AUC % Extrapolation plasma (10 mg/kg IP): 15% | AUCINF brain (10 mg/kg IP): 151 ng·h/g | AUCLAST brain (10 mg/kg IP): 64 ng·h/g | Cmax brain (10 mg/kg IP): 0.040 µM and 23 ng/g | Cmax brain (10 mg/kg IP, C57BL/6 mice): 23 ng/mL | Brain/plasma Ratio, individual (Group 1-3) (10 mg/kg IP, 0.25 h): 0.012 and 0.019 | brain calculated concentration, individual (Group 1-3) (10 mg/kg IP, 0.25 h): 17.9 ng/g and 22.6 ng/g | plasma concentration, individual (Group 1-3) (10 mg/kg IP, 0.25 hr): 1500.0 ng/mL and 1180.0 ng/mL | Brain/plasma Ratio, individual (Group 1-3) (10 mg/kg IP, 0.5 h): 0.008 and 0.023 and 0.011 | brain calculated concentration, individual (Group 1-3) (10 mg/kg IP, 0.5 h): 29.1 ng/g and 18.7 ng/g | brain calculated concentration, individual (Group 1-3) (10 mg/kg IP, 1 h): 16.5 ng/g and 14.9 ng/g | plasma concentration, individual (Group 1-3) (10 mg/kg IP, 1 hr): 1270.0 ng/mL and 1170.0 ng/mL | Brain/plasma Ratio, individual (Group 1-3) (10 mg/kg IP, 2 h): 0.016 and 0.022 | brain calculated concentration, individual (Group 1-3) (10 mg/kg IP, 2 h): 18.0 ng/g and 24.3 ng/g | plasma concentration, individual (Group 1-3) (10 mg/kg IP, 2 hr): 1140.0 ng/mL and 1080.0 ng/mL | Brain/plasma Ratio, individual (Group 1-3) (10 mg/kg IP, 4 h): 0.058 and 0.050 and 0.022 | brain calculated concentration, individual (Group 1-3) (10 mg/kg IP, 4 h): 10.4 ng/g and 12.8 ng/g | brain concentration in brain compartment (IP administration): 40 nM | brain concentration, upper limit if restricted to extracellular space (IP administration): ≤ 200 nM | Kp at 1 h (male, C57BL/6, mouse, brain and plasma, ip, 10 mg/kg, 10 mg/kg IP, 1 h, read-out: Brain/plasma Ratio, Mean): 0.013 | Kp at 2 h (male, C57BL/6, mouse, brain and plasma, ip, 10 mg/kg, 10 mg/kg IP, 2 h, read-out: Brain/plasma Ratio, Mean): 0.018 | Kp at 2 h (male, C57BL/6, mouse, brain and plasma, ip, 10 mg/kg, 10 mg/kg IP, 2 h, read-out: Brain/plasma Ratio, individual (Group 1-3)): 0.015 | Kp at 4 h (male, C57BL/6, mouse, brain and plasma, ip, 10 mg/kg, 10 mg/kg IP, 4 h, read-out: Brain/plasma Ratio, Mean): 0.043 | concentration at 0.25 h (male, C57BL/6, mouse, brain, 10 mg/kg, 10 mg/kg IP, 0.25 h, read-out: brain calculated concentration, Mean): 17.5 ng/g | concentration at 0.25 h (male, C57BL/6, mouse, brain, 10 mg/kg, 10 mg/kg IP, 0.25 h, read-out: brain calculated concentration, individual (Group 1-3)): 12 ng/g | concentration at 0.5 h (male, C57BL/6, mouse, brain, 10 mg/kg, 10 mg/kg IP, 0.5 h, read-out: brain calculated concentration, Mean): 22.8 ng/g | concentration at 0.5 h (male, C57BL/6, mouse, brain, 10 mg/kg, 10 mg/kg IP, 0.5 h, read-out: brain calculated concentration, individual (Group 1-3)): 20.6 ng/g | concentration at 1 h (male, C57BL/6, mouse, brain, 10 mg/kg, 10 mg/kg IP, 1 h, read-out: brain calculated concentration, Mean): 14.6 ng/g | concentration at 1 h (male, C57BL/6, mouse, brain, 10 mg/kg, 10 mg/kg IP, 1 h, read-out: brain calculated concentration, individual (Group 1-3)): 12.4 ng/g | concentration at 2 h (male, C57BL/6, mouse, brain, 10 mg/kg, 10 mg/kg IP, 2 h, read-out: brain calculated concentration, Mean): 19.4 ng/g | concentration at 2 h (male, C57BL/6, mouse, brain, 10 mg/kg, 10 mg/kg IP, 2 h, read-out: brain calculated concentration, individual (Group 1-3)): 15.9 ng/g | concentration at 4 h (male, C57BL/6, mouse, brain, 10 mg/kg, 10 mg/kg IP, 4 h, read-out: brain calculated concentration, Mean): 10.9 ng/g | concentration at 4 h (male, C57BL/6, mouse, brain, 10 mg/kg, 10 mg/kg IP, 4 h, read-out: brain calculated concentration, individual (Group 1-3)): 9.5 ng/g | Kp at 0.25 h (male, C57BL/6, mouse, brain/plasma, ip, 10 mg/kg, 10 mg/kg IP, 0.25 h, read-out: Brain/plasma Ratio, Mean): 0.014 | Kp at 0.25 h (male, C57BL/6, mouse, brain/plasma, ip, 10 mg/kg, 10 mg/kg IP, 0.25 h, read-out: Brain/plasma Ratio, individual (Group 1-3)): 0.01 | Kp at 0.5 h (male, C57BL/6, mouse, brain/plasma, ip, 10 mg/kg, 10 mg/kg IP, 0.5 h, read-out: Brain/plasma Ratio, Mean): 0.014 | Kp at 1 h (male, C57BL/6, mouse, brain/plasma, ip, 10 mg/kg, 10 mg/kg IP, 1 h, read-out: Brain/plasma Ratio, individual (Group 1-3)): 0.015 | Kp (male, C57BL/6, mouse, brain/plasma, ip, 10 mg/kg, 10 mg/kg IP, read-out: Ratio_AUCLAST (Brain/plasma)): 0.02 | AUC [1]: 64 ng·h/mL | Tmax [2]: 0.5 h | half-life (male, C57BL/6, mouse, brain, 10 mg/kg IP, read-out: t1/2 brain): > 4 h | concentration at 0.25 h (male, C57BL/6, mouse, plasma, 10 mg/kg, 10 mg/kg IP, 0.25 hr, read-out: plasma concentration, Mean): 1310 ng/mL | concentration at 0.25 h (male, C57BL/6, mouse, plasma, 10 mg/kg, 10 mg/kg IP, 0.25 hr, read-out: plasma concentration, individual (Group 1-3)): 1250 ng/mL | concentration at 0.5 h (male, C57BL/6, mouse, plasma, 10 mg/kg, 10 mg/kg IP, 0.5 hr, read-out: plasma concentration, Mean): 1870 ng/mL | concentration at 1 h (male, C57BL/6, mouse, plasma, 10 mg/kg, 10 mg/kg IP, 1 hr, read-out: plasma concentration, Mean): 1150 ng/mL | concentration at 1 h (male, C57BL/6, mouse, plasma, 10 mg/kg, 10 mg/kg IP, 1 hr, read-out: plasma concentration, individual (Group 1-3)): 1020 ng/mL | concentration at 2 h (male, C57BL/6, mouse, plasma, 10 mg/kg, 10 mg/kg IP, 2 hr, read-out: plasma concentration, Mean): 1090 ng/mL | concentration at 2 h (male, C57BL/6, mouse, plasma, 10 mg/kg, 10 mg/kg IP, 2 hr, read-out: plasma concentration, individual (Group 1-3)): 1060 ng/mL | concentration at 4 h (male, C57BL/6, mouse, plasma, 10 mg/kg, 10 mg/kg IP, 4 hr, read-out: plasma concentration, Mean): 319 ng/mL | Cmax [3]: 3300 nM | AUC(0-t) [3]: 3850 ng·h/mL | AUC(0-inf) (male, C57BL/6, mouse, plasma, 10 mg/kg IP, read-out: AUCINF plasma): 4550 ng·h/mL | Tmax [4]: 0.5 h | half-life [5]: 1.5 h | Cmax [6]: 1870 ng/mL
SMILES: O=C(O)CC(F)(F)C(=O)N1N=C(c2c(-c3ccc(Cl)cc3)c3ccccc3[nH]c2=O)CC1c1ccc(Cl)cc1 (centres unmarked) [2i]
plasma concentration, individual (Group 1-3) (10 mg/kg IP, 0.5 hr): 2620.0 ng/mL and 1260.0 ng/mL and 1740.0 ng/mL | plasma concentration, individual (Group 1-3) (10 mg/kg IP, 4 hr): 163.0 ng/mL and 208.0 ng/mL and 585.0 ng/mL

Cmax brain (10 mg/kg IP, C57BL/6 mice): 13 ng/mL | AUC [1]: 41 ng·h/mL | Tmax [2]: 4 h | AUC(0-t) [3]: 2270 ng·h/mL | Tmax [4]: 0.5 h | half-life [5]: 4.9 h | Cmax [6]: 815 ng/mL
SMILES: NC(=O)CC(F)(F)C(=O)N1N=C(c2c(-c3ccc(Cl)cc3)c3ccccc3[nH]c2=O)CC1c1ccc(Cl)cc1 (centres unmarked) [2k]
